Results on two molecules are retold here after patent US10537103B2, “Antibacterial composition containing an isomer mixture of monosaccharide alkyl monoacetals or monoethers” (TEREOS STARCH & SWEETENERS BELGIUM, priority 2014, dated 2020).

The test system of series [1] is Staphylococcus S. aureus strains (ATCC, methicillin-resistant, daptomycin-resistant). Put plainly: MIC on a wider panel of strains (Example 10), microdilution. It is filed as cell-based. Here is the method:
The cultures studied, freshly isolated (after incubation on a blood agar at 37° C. for 18 h), are taken up in sterile water (10 mL) until obtaining a 0.5 McFarland (Mc) suspension i.e. 1 to 1 to 2×10^8 CFU (bacteria)/cm^3. The bacterial suspension was then diluted to obtain a final concentration of 1×10^6 CFU/cm^3.
Each well contains an identical quantity of Mueller-Hinton medium (a rich medium for bacterial culture) and bacteria with final [concentration of] 0.5×10^6 CFU/cm^3.
The test compounds of interest are solubilized in ethanol or DMSO at 25 mg/mL before being diluted to different concentrations two by two. On the multiwell plate, a first series has been planned comprising the culture medium without the test compound of interest. It corresponds to the growth control (control well). These controls serve as reference for comparing bacterial growth with that of the subsequent wells comprising different concentrations of the test compound of interest. The second series of wells comprises the mother solution for the test compound of interest for a concentration in the wells of 256 mg/L (7 mM). Each series of wells was diluted two by two until the last series for a final concentration of 0.25 mg/L (0.0007 mM). Each concentration is duplicated in the same plate. The plate is incubated for 18 h at 37° C. […] If there is antibacterial activity, the bacterial growth is inhibited, which means that no turbidity or bacterial residue is present.
The minimum inhibitory concentrations (MIC) are tested on Gram-positive bacterial strains according to the recommendations of the “Clinical Laboratory Standards Institute” (Clinical-Laboratory-Standards-Institute, 6th ed. Approved standard M100-S17. CLSI, Wayne, Pa., 2007). The clinical strains have been isolated in the Hospice de Lyon.
Staphylococci S. aureus: ATCC® 29213™, ATCC 25923,
The cultures studied, freshly isolated (after incubation on a blood agar at 37° C. for 18 h), are taken up in sterile water (10 mL) until obtaining a 0.5 McFarland (Mc) suspension i.e. At 10^8 CFU (bacteria)/cm^3. The bacterial suspension was then diluted to obtain a final concentration of 10^6 CFU/cm^3.

Series [2] relates to E. faecalis strains (ATCC 29212, 9901, 1801). The series is described as above. It is filed as cell-based. As to conditions: Enterococcus faecalis, ATCC29212. Here is the method: The cultures studied, freshly isolated (after incubation on a blood agar at 37° C. for 18 h), are taken up in sterile water (10 mL) until obtaining a 0.5 McFarland (Mc) suspension i.e. 1 to 1 to 2×10^8 CFU (bacteria)/cm^3. The bacterial suspension was then diluted to obtain a final concentration of 1×10^6 CFU/cm^3. Each well contains an identical quantity of Mueller-Hinton medium (a rich medium for bacterial culture) and bacteria with final [concentration of] 0.5×10^6 CFU/cm^3. The test compounds of interest are solubilized in ethanol or DMSO at 25 mg/mL before being diluted to different concentrations two by two. On the multiwell plate, a first series has been planned comprising the culture medium without the test compound of interest. It corresponds to the growth control (control well). These controls serve as reference for comparing bacterial growth with that of the subsequent wells comprising different concentrations of the test compound of interest. The second series of wells comprises the mother solution for the test compound of interest for a concentration in the wells of 256 mg/L (7 mM). Each series of wells was diluted two by two until the last series for a final concentration of 0.25 mg/L (0.0007 mM). Each concentration is duplicated in the same plate. The plate is incubated for 18 h at 37° C. […] If there is antibacterial activity, the bacterial growth is inhibited, which means that no turbidity or bacterial residue is present. The minimum inhibitory concentrations (MIC) are tested on Gram-positive bacterial strains according to the recommendations of the “Clinical Laboratory Standards Institute” (Clinical-Laboratory-Standards-Institute, 6th ed. Approved standard M100-S17. CLSI, Wayne, Pa., 2007). The clinical strains have been isolated in the Hospice de Lyon. Enterococci: E. faecalis (ATCC® 29212™), clinical enterococci strains E. faecalis isolated from urines: strain 015206179901 (hereinafter 9901), strain 015205261801 (hereinafter 1801) The cultures studied, freshly isolated (after incubation on a blood agar at 37° C. for 18 h), are taken up in sterile water (10 mL) until obtaining a 0.5 McFarland (Mc) suspension i.e. At 10^8 CFU (bacteria)/cm^3. The bacterial suspension was then diluted to obtain a final concentration of 10^6 CFU/cm^3.

Setting [3] is: methicillin-resistant, HT 2002-0417, read-out: MIC S. aureus HT 2002-0417.
[4] abbreviates: methicillin-resistant, HT 2006-1004, read-out: MIC S. aureus HT 2006-1004.
Where [5] appears, read: methicillin-resistant, LY 199-0053, read-out: MIC S. aureus LY 199-0053.
Setting [6] is: methicillin-resistant, Lac-Deleo USA 300, read-out: MIC S. aureus USA 300.
Setting [7] is: methicillin-resistant, MU 3, read-out: MIC S. aureus MU 3.
The mark [8] stands for this setting: strain ATCC 25923, read-out: MIC S. aureus ATCC 25923.
[9] abbreviates: strain ATCC 29213, read-out: MIC S. aureus ATCC 29213.
The mark [10] stands for this setting: E. faecalis ATCC 29212, read-out: MIC Enterococcus ATCC 29212.

≈ marks a conversion by molar mass, not a printed value. Where two headings read alike, the source gives them in different places.

For orientation: MIC means the smallest concentration in the dilution series that meets the test's criterion for growth inhibition. By melting point is commonly meant the temperature of the solid-liquid transition. Take `CCCCCCCCCCCC1OCC2O[C@@H](OC)C(O)C(O)[C@@H]2O1` (stereo partly drawn) [Compound 1f, Methyl 4,6-O-Dodecylidene β-D-glucopyranoside]: the melting point is 84 °C. Besides, the MIC in series [1] (daptomycin-resistant, ST 2014 1288, read-out: MIC S. aureus ST 2014 1288) stood at 64 µg/mL (≈ 178 µM). Further, the MIC in series [1] (daptomycin-resistant, ST 2015-0188, read-out: MIC S. aureus ST 2015 0188) came out at 64 µg/mL (≈ 178 µM). Also, in series [1] (daptomycin-resistant, ST 2015-0989, read-out: MIC S. aureus ST 2015 0989), the MIC stood at 64 µg/mL (≈ 178 µM). Moreover, in series [1] (setting [3]), the MIC is 128 µg/mL (≈ 355 µM). Moreover, in series [1] (setting [4]), the MIC is 64 µg/mL (≈ 178 µM). Further, the MIC in series [1] (setting [5]) came to 64 µg/mL (≈ 178 µM). For the same molecule, the MIC in series [1] (setting [6]) was determined as 64 µg/mL (≈ 178 µM). Also, the MIC in series [1] (setting [7]) was 64 µg/mL (≈ 178 µM). Besides, the MIC in series [1] (setting [8]) stood at 64 µg/mL (≈ 178 µM). Besides, the MIC in series [1] (setting [9]) turned out to be 64 µg/mL (≈ 178 µM). The MIC in series [2] (setting [10]) is 64 µg/mL (≈ 178 µM). Moreover, in series [2] (E. faecalis clinical strain 015205261801, from urines, read-out: MIC Enterococcus 1801), the MIC was determined as 8 µg/mL (≈ 22.2 µM). In series [2] (E. faecalis clinical strain 015206179901, from urines, read-out: MIC Enterococcus 9901), the MIC was 32 µg/mL (≈ 88.8 µM).

As to `CCCCCCCCCCCC1OCC2O[C@H](OC)C(O)C(O)[C@@H]2O1` (stereo partly drawn) [Compound 1e, Methyl 4,6-O-Dodecylidene α-D-glucopyranoside], the melting point came to 69 °C. Also, the MIC in series [1] (Staphylococcus, all strains of Table 6, read-out: MIC, staphylococcus strains tested) was above 256 µg/mL. Further, in series [1] (setting [3]), the MIC was 256 µg/mL (≈ 710 µM). In addition, the MIC in series [1] (methicillin-resistant, HT 2004-0012, read-out: MIC S. aureus HT 2004-0012) was found to be 256 µg/mL (≈ 710 µM). The MIC in series [1] (setting [4]) turned out to be 256 µg/mL (≈ 710 µM). Also, the MIC in series [1] (setting [5]) is 256 µg/mL (≈ 710 µM). The MIC in series [1] (setting [6]) was 256 µg/mL (≈ 710 µM). The MIC in series [1] (setting [7]) worked out at 256 µg/mL (≈ 710 µM). In series [1] (setting [8]), the MIC was found to be 256 µg/mL (≈ 710 µM). Besides, the MIC in series [1] (setting [9]) came to 256 µg/mL (≈ 710 µM). Also, the MIC in series [2] (setting [10]) worked out at 256 µg/mL (≈ 710 µM).
